In the NIST ThermoML archive (doi:10.1016/j.jct.2017.11.017):
± gives the expanded uncertainty stated by the source.

Assay: activity coefficient (dimensionless); of the first substance listed, at infinite dilution; xn = mol fraction of the nth substance listed
Conditions: 101.33 kPa, Liquid, Chromatography, x1 = 0

Row | SMILES | activity coefficient (318.15 K) | activity coefficient (328.15 K) | activity coefficient (338.15 K) | activity coefficient (348.15 K) | activity coefficient (358.15 K) | activity coefficient (368.15 K) | activity coefficient (298.15 K) | activity coefficient (308.15 K)
1 | CC#N [acetonitrile] + C[N+]1(CCCO)CCOCC1.N#C[N-]C#N | 1.25 ± 0.08 | 1.29 ± 0.08 | 1.33 ± 0.09 | 1.37 ± 0.09 | 1.4 ± 0.09 | 1.45 ± 0.1 |  | 
2 | CCC(=O)OC [methyl propanoate] + C[N+]1(CCCO)CCOCC1.N#C[N-]C#N | 8.18 ± 0.56 | 8.35 ± 0.57 | 8.51 ± 0.58 | 8.7 ± 0.59 | 8.81 ± 0.6 | 9.01 ± 0.61 |  | 
3 | Cc1ccccc1 [toluene] + C[N+]1(CCCO)CCOCC1.N#C[N-]C#N | 13 ± 0.9 | 13.1 ± 0.9 | 13.3 ± 0.9 | 13.4 ± 0.9 | 13.6 ± 0.9 | 13.7 ± 0.9 |  | 
4 | CCCCCCCC [octane] + C[N+]1(CCCO)CCOCC1.N#C[N-]C#N | 1460 ± 100 | 1260 ± 87 | 1090 ± 75 |  |  |  | 2070 ± 140 | 1730 ± 120
5 | C=CCCCCCC [oct-1-ene] + C[N+]1(CCCO)CCOCC1.N#C[N-]C#N | 764 ± 53 | 635 ± 44 | 534 ± 37 | 453 ± 31 |  |  | 1170 ± 81 | 937 ± 65
6 | Cc1ccccc1C [1,2-dimethylbenzene] + C[N+]1(CCCO)CCOCC1.N#C[N-]C#N | 18.2 ± 1.2 | 18.6 ± 1.3 | 18.8 ± 1.3 | 19 ± 1.3 | 19.2 ± 1.3 | 19.5 ± 1.3 |  | 
7 | C1CCCCCCC1 [cyclooctane] + C[n+]1ccn(CCCO)c1.N#CN=C=[N-] | 181 ± 12 | 165 ± 11 | 153 ± 11 | 143 ± 10 | 137 ± 9 |  | 216 ± 15 | 198 ± 14
8 | Cc1cccc(C)c1 [1,3-dimethylbenzene] + C[N+]1(CCCO)CCOCC1.N#C[N-]C#N | 24.1 ± 1.6 | 24.1 ± 1.6 | 24.2 ± 1.7 | 24.3 ± 1.7 | 24.3 ± 1.7 | 24.5 ± 1.7 |  | 
9 | CC(C)O [propan-2-ol] + C[N+]1(CCCO)CCOCC1.N#C[N-]C#N | 2.85 ± 0.19 | 2.78 ± 0.19 | 2.72 ± 0.19 | 2.67 ± 0.18 | 2.64 ± 0.18 | 2.6 ± 0.18 |  | 
10 | CCCCCCCCCC [decane] + C[n+]1ccn(CCCO)c1.N#CN=C=[N-] | 1530 ± 110 | 1380 ± 95 | 1270 ± 88 | 1170 ± 81 | 1070 ± 74 |  | 1870 ± 130 | 1680 ± 120
11 | CCC(C)O (stereo unspecified) [butan-2-ol] + C[N+]1(CCCO)CCOCC1.N#C[N-]C#N | 4.46 ± 0.3 | 4.35 ± 0.3 | 4.27 ± 0.29 | 4.2 ± 0.29 | 4.15 ± 0.28 | 4.09 ± 0.28 |  | 
12 | CCCO [propan-1-ol] + C[N+]1(CCCO)CCOCC1.N#C[N-]C#N | 2.63 ± 0.18 | 2.58 ± 0.18 | 2.55 ± 0.17 | 2.52 ± 0.17 | 2.49 ± 0.17 | 2.46 ± 0.17 |  | 
13 | CCCCCCC [heptane] + C[N+]1(CCCO)CCOCC1.N#C[N-]C#N |  |  |  |  |  |  | 1540 ± 110 | 1290 ± 89
14 | CCOC(C)(C)C [2-ethoxy-2-methylpropane] + C[n+]1ccn(CCCO)c1.N#CN=C=[N-] | 78.5 ± 5.4 | 76.2 ± 5.2 | 74.5 ± 5.1 | 73.1 ± 5 | 72.1 ± 4.9 | 70.5 ± 4.8 |  | 
15 | CCCC=O [butanal] + C[n+]1ccn(CCCO)c1.N#CN=C=[N-] | 2.68 ± 0.18 | 2.92 ± 0.2 | 3.19 ± 0.22 | 3.43 ± 0.23 | 3.72 ± 0.25 | 3.95 ± 0.27 |  | 
16 | CCCCCCCCC [nonane] + C[n+]1ccn(CCCO)c1.N#CN=C=[N-] | 1070 ± 74 | 955 ± 66 | 863 ± 59 | 780 ± 54 | 722 ± 50 |  | 1360 ± 94 | 1200 ± 83
17 | CCCCCCCCCC [decane] + C[N+]1(CCCO)CCOCC1.N#C[N-]C#N | 2220 ± 150 | 1980 ± 140 | 1770 ± 120 | 1590 ± 110 | 1430 ± 99 | 1310 ± 90 |  | 2530 ± 180
18 | CCCCCCCC [octane] + C[n+]1ccn(CCCO)c1.N#CN=C=[N-] | 698 ± 48 | 626 ± 43 | 560 ± 39 | 509 ± 35 | 465 ± 32 |  | 881 ± 61 | 779 ± 54
19 | CCOC(C)=O [ethyl acetate] + C[n+]1ccn(CCCO)c1.N#CN=C=[N-] | 5.72 ± 0.39 | 5.95 ± 0.41 | 6.18 ± 0.42 | 6.36 ± 0.43 | 6.61 ± 0.45 | 6.86 ± 0.47 |  | 
20 | Cc1ccc(C)cc1 [1,4-dimethylbenzene] + C[n+]1ccn(CCCO)c1.N#CN=C=[N-] | 13.5 ± 0.9 | 13.9 ± 1 | 14.3 ± 1 | 14.7 ± 1 | 15.1 ± 1 | 15.5 ± 1.1 |  | 
21 | CCO [ethanol] + C[N+]1(CCCO)CCOCC1.N#C[N-]C#N | 1.71 ± 0.11 | 1.66 ± 0.11 | 1.61 ± 0.11 | 1.57 ± 0.1 | 1.54 ± 0.1 | 1.51 ± 0.1 |  | 
22 | C=C(C)c1ccccc1 [(1-methylethenyl)benzene] + C[n+]1ccn(CCCO)c1.N#CN=C=[N-] | 10.2 ± 0.7 | 10.9 ± 0.7 | 11.5 ± 0.8 | 12.1 ± 0.8 | 12.7 ± 0.9 | 13.3 ± 0.9 |  | 
23 | CCCOCCC [dipropyl ether] + C[N+]1(CCCO)CCOCC1.N#C[N-]C#N | 202 ± 14 | 189 ± 13 | 176 ± 12 | 166 ± 11 | 157 ± 11 | 148 ± 10 |  | 218 ± 15
24 | CO [methanol] + C[N+]1(CCCO)CCOCC1.N#C[N-]C#N | 0.753 ± 0.05 | 0.763 ± 0.05 | 0.771 ± 0.05 | 0.778 ± 0.051 | 0.788 ± 0.051 | 0.791 ± 0.051 |  | 
25 | CCO [ethanol] + C[n+]1ccn(CCCO)c1.N#CN=C=[N-] | 1.17 ± 0.07 | 1.17 ± 0.07 | 1.18 ± 0.08 | 1.19 ± 0.08 | 1.2 ± 0.08 | 1.2 ± 0.08 |  | 
26 | C=CCCCC [hex-1-ene] + C[n+]1ccn(CCCO)c1.N#CN=C=[N-] | 109 ± 7 | 102 ± 7 | 97.5 ± 6.7 | 92.5 ± 6.3 | 89 ± 6.1 |  | 123 ± 8 | 116 ± 8
27 | C=CCCCCCC [oct-1-ene] + C[n+]1ccn(CCCO)c1.N#CN=C=[N-] | 305 ± 21 | 282 ± 19 | 263 ± 18 | 245 ± 17 | 234 ± 16 |  | 358 ± 25 | 331 ± 23
28 | CC(C)=O [acetone] + C[n+]1ccn(CCCO)c1.N#CN=C=[N-] | 1.76 ± 0.12 | 1.83 ± 0.12 | 1.92 ± 0.13 | 2 ± 0.14 | 2.09 ± 0.14 | 2.19 ± 0.15 |  | 
